Measured values from US20190032014A1, “USING MICROBIOTA METABOLITES TO DIFFERENTIATE NAÏVE T-CELLS AND RELATED METHODS TO INDUCE OR PREVENT INFLAMMATORY CONDITIONS” (THE TEXAS A&M UNIVERSITY SYSTEM, priority 2016, published 2019).
Entries after “also recorded” stand apart in the source; their conditions may differ.

Legend:
mTOR = mTOR activation (% P-S6) in conditioned T cells; type: cell-based; conditions: matured conditioned T cells
From the text: The mechanistic target of rapamycin (mTOR) is a core component in multiple protein complexes that have significant influence on various cellular processes including cell growth, differentiation, and even enteropathies in the intestine. Accordingly, the interaction of indole and 5-HI on mTor activation was investigated.

FoxP3+ cells = test: Homing markers (α4β7, CD62L) on iTreg cells
[1] = tested on: T cells of spleen and mesenteric lymph nodes; test: In vivo acute T cell activation (αCD3) in spleen and MLN; parameters: species or system mice; conditions: administered with αCD3 at 0 and 48 hrs
Procedure: After 52 additional hours, the spleens were harvested and homogenized. Cells were plated, stimulated with PMA/lonomycin, stained for the indicated T cell markers, and subjected to FACS analysis. The graphs show the % IFN-γ+ CD4+ cells (FIG. 26A), the % IFN-γ+ CD4+ CD44^low cells (FIG. 26B), and the % IFN-γ+ CD4+ CD44^high cells (FIG. 26C) resulting from the various treatments. […] The graphs show the % IFN γ+ CD4+ cells (FIG. 27A), the % IFN γ+ CD4+ CD44low cells (FIG. 27B), and the % IFN γ+ CD4+ CD44high cells (FIG. 27C) resulting from the various treatments.
Fifteen μg of αCD3 (BioXcell clone 145-2C11) was administered via intra-peritoneal injection at 0 and 48 hours. […] At 52 hours, spleen and mesenteric lymph nodes were isolated and plated individually at a concentration of 1×10^6 cells/well with RPMI media supplemented with 2-mercaptoethanol, gentamicin, penicillin, and streptomycin+10% FCS (all from Life Technologies) in a 96-well round bottom plate (Falcon). Cells were immediately stimulated for 4 hours and stained. Specifically, for the last four hours of culture, cells were treated with golgi plug (BD), PMA and ionomycin (both from Sigma-Aldrich).

CD4+ CD25− naïve T cells [2] = test: In vitro naïve T cell differentiation, Th1-skew (IFN-γ+); type: cell-based, C57BL/6 mice; conditions: Th1 skewing conditions
Procedure: When naïve CD4+ CD25− cells were cultured 72 hours in αCD3/28 coated wells with Th0-, Th1- or Th2-skew cytokines and indole or solvent control, followed by stimulation with PMA, Ionomycin and Golgi Plug for the last 5 hours of culture, no effect on the % of Th1 and Th2 cells was observed (in contrast to the significant effect that indole has on Treg and Th17 cells; see FIGS. 2A and 2B).
(§1) CD4+ CD25− T cells were isolated to high purity (>98%) from the pooled spleen and mesenteric lymph nodes of C57BL/6 mice (Jackson Labs) with a BD FACS Aria II flow cytometer. Fc Block (BD), αCD4-efluor450 (eBioscience clone GK1.5) and αCD25-PECy7 (eBioscience clone PC61.5) antibodies were used for staining before sorting.
(§2) For Th1-skew: 5 ng/mL IL-12 (Peprotech cat. #210-12) and 10 µg/mL αIL-4 (BioXCell clone 11B11) were added to culture. For Th2-skew: 10 ng/mL IL-4 (Peprotech) and 10 μg/mL αIFN-γ (BioXCell clone R4-6A2) were added to culture. For Th17-skew: 10 ng/mL IL-6 (Peprotech), 5 ng/mL IL-23 (R&D), 0.5 ng/mL TGF-β (Peprotech), 10 μg/mL al-4 (BioXCell clone 11B11), and 10 μg/mL αIFN-γ (BioXCell clone R4-6A2) were added to culture. For Treg-skew: 2 ng/mL TGF-β (Peprotech) and 100 U/mL IL-2 (Roche) were added to culture. Sodium Propionate, sodium acetate, sodium butyrate and sodium chloride (all from Sigma-Aldrich) were solubilized in media and added to culture. Indole was solubilized in DMF (both from Sigma-Aldrich) at 2M and brought to final concentration in media. MGCD0103 (Selleck Chemicals) was solubilized in DMF at 2 mM and brought to final concentration in media. A 0.05% DMF solvent control was used for all experiments.

[3] = tested on: wild-type or AhR KO T cells; test: T cell differentiation in wild-type vs AhR KO T cells; type: cell-based, mice
Procedure: The aryl hydrocarbon receptor (AhR) is implicated in the differentiation of Treg and Th17 cells. The role of AhR was assessed with respect to indole's effect on Treg augmentation. Wild-type and AhR KO naïve T-cells were conditioned with increasing amounts of indole and then assessed for % of FoxP3 expression. […] Additionally, the role of AhR was assessed with respect to indole's effect on Th17 inhibition.
The AhR knockout was further investigated for iTreg homing markers, CD62L and α4β7, as described above.
Next, the AhR knockout was further investigated for the impact of AhR on 5-HI-mediated T cell differentiation.

CD4+ CD25− naïve T cells [4] = test: In vitro naïve T cell differentiation, Th17-skew (IL-17+ by FACS); type: cell-based, C57BL/6 mice; conditions: for effect on % IL-17+ cells / Th17 differentiation: vs DMF control
Procedure: Mesenteric lymph node (MLN) and spleen are harvested from WT or FOXP3^EGFP C57Bl/6 mice and homogenized. Spleen tissue is subjected to red blood cell lysis and pooled into a single cell suspension for counting. Counted cells are resuspended in sterile FACS buffer (PBS++ with 05% bovine serum albumin) at a concentration of ˜5×10^7 cells/mL and stained for 45 minutes at 4° C. with anti-CD4 and anti-CD25 fluorophore-conjugated monoclonal antibodies (mAb). After two washes, the stained cells are resuspended at ˜6×10^6 cells/mL in FACS buffer and immediately sorted. […] TDMMs are solubilized in DMF at 2 M and used at desired concentrations (e.g., 0.01, 0.1, 0.5 and 1.0 mM) in growth media; DMF in growth media (0.05%) is used as a solvent control.
The % of Treg or Th17 cells are determined based on the expression of signature transcription factors, FoxP3 and Rorγt, respectively. In addition, signature cytokine markers for Treg and Th17, TGFβ or IL-17, respectively, among others are measured using intracellular cytokine staining. Since it is possible that a cell could be positive for FoxP3 and still express some IL-17, the final % of Tregs are determined as the cell population that is FoxP3+TGFβ+ Rorγt-IL-17−. Similarly, the % of Th17 cells are determined as the population that is FoxP3-TGFβ− Rorγt+IL-17+.
as §1, §2

NF-κB = conditions: intestinal epithelial cells (IECs); Bansal et al. 2010; cited from earlier work
DSS colitis = DSS colitis model; conditions: 5% DSS 7 days, then indole 7 days; wild-type vs Rag-deficient mice
Procedure: FIG. 32A: Wild-type C57B16 mice were treated with 5% DSS, or not, in drinking water for 7 days. […] Individual mouse weight was recorded daily throughout experiment as a measure of inflammation. FIG. 32B: Mice were treated as in FIG. 32A, only mice were Rag-deficient mice, which lack lymphocytes (T- and B-cells).
For FIG. 32A, wild-type C57B16 mice were treated with 5% DSS, or not, in drinking water for 7 days. […] Individual mouse weight was recorded daily throughout experiment as a measure of inflammation. For FIG. 32B, Rag-deficient mice, which lack lymphocytes (T- and B-cells), were treated as in FIG. 32A and individual weight was recorded.

## c1ccc2[nH]ccc2c1 [Indole, indole]
mTOR
  % P-S6 (mTOR activation): significantly reduced
FoxP3+ cells; indole alone
  % of α4β7+ in FoxP3+ cells: increases the % of α4β7+ in FoxP3+ cells
FoxP3+ cells; indole combined with retinoic acid (RA)
  % of α4β7+ in FoxP3+ cells: amplified when combined with retinoic acid (RA)
FoxP3+ cells; indole with acetate, propionate or butyrate at multiple concentrations
  % α4β7+ on iTreg cells: increases α4β7 in the presence of SCFAs, except for high levels of butyrate
FoxP3+ cells; with and without retinoic acid (RA)
  CD62L+ on FoxP3+ cells: increase of CD62L+ on FoxP3+ cells with and without combination with retinoic acid (RA)
[1]; mesenteric lymph nodes
  Treg differentiation in vivo (MLN): synergizes with butyrate for the induction of Treg cells in vivo; also recorded: can augment Treg development in vivo when administered to the subject directly
[1]; spleen
  Th1 differentiation in vivo (% IFN-γ+ CD4+ cells, spleen): suppresses butyrate induction of Th1 cells in vivo
CD4+ CD25− naïve T cells [2]; regardless of 5-HI presence
  % IFN-γ+ cells, indole combined with butyrate: the % IFN-γ+ cells decreases
CD4+ CD25− naïve T cells [2]; vs 5-HI alone
  % IFN-γ+ cells, indole combined with 5-HI: negated when 5-HI is combined with indole
CD4+ CD25− naïve T cells [2]; vs solvent control
  effect on % Th1 cells (IFN-γ+): no effect; also recorded: did not influence the development of Th1 and Th2 cells; also recorded: did not affect the Th1 skewing of Th1 cells
[3]
  % IL-17+ in wild-type vs AhR KO T cells: decreased significantly more in wild-type over AhR KO T cells
  AhR dependence of effects (AhR knockout mice, unpublished data): some of the effects of indole are not AhR dependent
[3]; increasing amounts of test substance
  FoxP3+ % in wild-type vs AhR KO T cells: increased significantly more in wild-type over AhR KO T cells
[3]; with or without RA
  expression of CD62L and α4β7 in FoxP3+ wild-type or AhR KO T cells: roughly equivalent with only minor differences
CD4+ CD25− naïve T cells [4]; 1 mM indole, Th17-skewing conditions, solvent control 13.5%
  expansion of Th17 cells (proportion): 1.4%
CD4+ CD25− naïve T cells [4]; Th17 skewing conditions
  % IL-17+ cells, indole added to butyrate and 5-HI: generally reversed after conditioning with indole
  effect on % IL-17+ cells / Th17 differentiation: significantly decreased the % of IL-17+ cells
CD4+ CD25− naïve T cells [4]; Th17 skewing conditions, vs 5-HI alone
  % IL-17+ cells, indole combined with 5-HI: not just negated, but actually reversed
CD4+ CD25− naïve T cells [4]; Th17 skewing conditions, listed as indole
  effect on % IL-17+ cells / Th17 differentiation: dose-dependent; also recorded: inhibits a Th17 response; also recorded: inhibits the development of illustrates % IL-17+ cells
CD4+ CD25− naïve T cells [4]; unpublished data
  Rorγt expression in Th17 cells: inhibits Rorγt expression in Th17 cells
CD4+ CD25− naïve T cells [4]; vs solvent control
  level of IL-17 expression (MFI): decreased
NF-κB
  NF-κB activation and indicators of inflammation: inhibits NF-κB activation and attenuates indicators of inflammation
DSS colitis
  colitis (mouse weight as measure of inflammation): inhibits colitis in a T-cell-dependent manner
